Data taken from publication PMC10350924, “Design, Synthesis, and Pharmacological Characterization of a Potent Soluble Epoxide Hydrolase Inhibitor for the Treatment of Acute Pancreatitis” (Journal of Medicinal Chemistry, 2023).

Assays:
[1] = UGTs/CYPs dual-activity mouse liver microsomal stability; format: in vitro ADME; details: for UGTs/CYPs dual-activity mouse liver microsomal stability: 5 μM, NADPH + UDP-GlcUA; for half-life at 5 µM / microsomal CLint at 1 h, 5 µM / half-life at 1 h, 5 µM: CD-1, mouse liver microsomes; for half-life at 5 µM / half-life at 1 h, 5 µM: 0.693/k, read-out: in vitro half-life; for microsomal CLint at 1 h, 5 µM: read-out: microsomal intrinsic clearance (CLint,micr)
Description: Initially, the chemical stability of the compounds was studied in phosphate buffer at pH 7.4. […] The same stability was evident in mouse plasma at two different time points (1 and 2 h, Table 2). In addition, all the compounds were subjected to an in vitro microsomal stability assay. In this assay, the metabolism of the parent compound over time (up to 60 min) was measured by liquid chromatography–mass spectrometry (LC–MS) in the presence of CYP450 and UGTs (uridine 5′-diphospho-glucuronosyltransferases) microsomal systems. The measurement of hepatic metabolism also allowed the determination of different pharmacokinetic parameters such as in vitro intrinsic clearance (CLint,micr) and to predict in vivo intrinsic clearance (CLint). The predicted in vivo CLint values were calculated using a microsomal protein value of 45 mg per gram of liver tissue and 87 g of liver per kg of body weight. The microsomal stability assay was validated using testosterone (low stability in the presence of NADPH), 2-naphthol (low stability using NADPH and UDPGA cofactors), and 3-(α-acetonylbenzyl)-4-hydroxy coumarin (high stability in dual-activity assay) as positive controls. To detect nonspecific protein binding or heat instability, the compounds were incubated without cofactors (negative control). Moreover, since microsomal concentrations > 2 mg mL^–1 are not recommended due to a potential negative impact of increased nonspecific binding on the rate of metabolism,[25] in our assay we used a low concentration of liver microsomes (0.5 mg mL^–1).
For microsomal stability assay, 25 μL of 5 mg mL^–1 mouse (CD-1) microsomes (Thermo Fisher Scientific, Bremen, Germany) were preincubated for 5 min at 37 °C with alamethicin and 2.5 μL of each sample (5 μM). The reaction started by adding a 50 μL mixture of 10 mM NADPH and UDP-GlcUA as cofactors (1:1 v/v) and was carried out at 37 °C for 15, 30, and 60 min in a Thermomixer comfort. The reaction was stopped by the addition of 200 μL of ice-cold methanol containing IS, and then samples were centrifuged at 14,680 rpm at 25 °C for 7 min (Eppendorf microcentrifuge 5424, Hamburg, Germany). The supernatants were collected and injected in LC-MS.
The control at 0 min was obtained by the addition of the organic solvent immediately after incubation with microsomes. Testosterone, 2-naphthol, and 3-(α-acetonylbenzyl)-4-hydroxy coumarin were used as the positive controls, while the negative control was prepared by incubation for up to 60 min without cofactors. The extent of metabolism is expressed as a percentage of the parent compound turnover. All experiments were performed in triplicate.

Mouse plasma stability = format: in vitro ADME; details: 37 °C, 5 μM
Description: Mouse plasma is warmed to 37 °C for 10 min, mixed, and centrifuged to pellet any aggregated protein. Biotransformation is initiated by adding 1.25 μL of compound solution (5 μM final incubation concentration), and the incubation was carried out at 37 °C for 120 min in a Thermomixer comfort (Eppendorf, Hamburg, Germany). At each specified time point (0, 60, and 120 min), compounds were removed into 200 μL of ice-cold methanol containing IS to stop degradation. Finally, the concentration of the test compound was quantified by LC-MS. All experiments were performed in triplicate. Procaine (low stability) and procainamide (high stability) were used as controls.

[2] = In vivo pharmacokinetic profile in mice after i.p. administration; details: mouse, plasma, ip, 10 mg/kg i.p., single dose
Description: For analysis of plasma levels of 28, mice (6 per group) received 10 mg/kg i.p. injection in a volume of 500 μL of DMSO 2% in saline. After selected time points, the mice were sacrificed (CO2 atmosphere) and blood (approximately 0.7–0.9 mL) was collected by intracardiac puncture using citrate as an anticoagulant. Then, plasma was obtained by centrifugation at 800g at 4 °C for 10 min and immediately frozen at −80 °C. The analyses were performed using a Shimadzu Nexera UHPLC (Kyoto, Japan) consisting of two LC-30AD pumps, a SIL-30AC autosampler, a CTO-20AC column oven, and a CBM-20A controller. Chromatographic conditions have previously been reported in the Chemical and Metabolic Stability section. The chromatographic system was coupled online to a triple quadrupole LCMS-8050 (Shimadzu) equipped with an electrospray ionization (ESI) source operating in positive mode. Quantification was performed in scheduled multiple reaction monitoring (MRM) mode. The transitions (Table S2) were m/z 456 > 149.2 (quantifier ion), 456 > 166.2 (qualifier ion) for compound 28, and m/z 458 > 149.2 (quantifier ion), 458 > 166.2 (qualifier ion) for IS. Dwell time, interface temperature, DL temperature, and heat block temperature were set to 100 ms, 300, 250, and 350 °C, respectively. Nebulizing gas, heating gas, and drying gas flow were set to 3, 10, and 10 L min^–1, respectively. All of the data was collected in the centroid mode and acquired and processed using Lab Solution workstation software. Stock solutions of 28 and IS were prepared in DMSO (1 mg mL^–1). The standards of 28 were prepared by dilution of the stock solution with methanol to obtain the working stock solutions in plasma of the following concentrations: 0.2, 0.5, 1, 5, 10, 20, and 50 ng mL^–1 for calibration curve. Calibration standards were prepared by spiking 100 μL of mouse plasma with a suitable working solution of 28 and IS to obtain a final concentration of 5 ng mL^–1 of the IS in each sample. For the extraction of 28 from mouse plasma, the method of protein precipitation was employed. Briefly, the frozen plasma samples were thawed at room temperature. 200 μL of ice-cold acetonitrile containing IS was added to 100 μL of plasma. The extraction was performed by vortex mixing for 5 min, followed by centrifugation for 10 min at 14,600 rpm at 25 °C. The supernatants were collected, filtered by […] RC-membranes, and then injected in UHPLC-MS/MS. […] The maximum concentration (Cmax) and time to reach Cmax (Tmax) were determined from the plasma concentration versus time data. The area under the plasma concentration–time curve from time 0 to infinity concentration (AUC0–∞) was determined using the linear trapezoidal method. The elimination half-life (T1/2) was calculated using ln(2)/ke.

UGTs/CYPs dual-activity mouse liver microsomal stability ([1]; 0.25 h, 0.5 mg mL–1 microsomes) [%]	UGTs/CYPs dual-activity mouse liver microsomal stability ([1]; 0.5 h) [%]	UGTs/CYPs dual-activity mouse liver microsomal stability ([1]; 1.0 h) [%]	half-life at 5 µM [1] [min]	microsomal CLint at 1 h, 5 µM [1] [µL/min/mg]	mouse plasma stability (Mouse plasma stability; 1.0 h) [%]	mouse plasma stability (Mouse plasma stability; 2.0 h) [%]	Structure (SMILES)	half-life at 1 h, 5 µM [1] [min]	AUC(0-inf) at 24 h [2] [ng·h/mL]	Cmax at 24 h [2] [ng/mL]	Tmax at 24 h [2] [min]	half-life at 24 h [2] [min]
8.4 ± 0.3	3.2 ± 1.0	2.1 ± 0.7	11.9	117	100.3 ± 0.2	102.2 ± 4.8	O=C(NCC12C[C@H]3C[C@@H](C1)C[C@@H](C2)C3)Nc1ccc2c(ccn2Cc2ccc(F)cc2)c1 [Compound 27, 1-(((3R,5R,7R)-Adamantan-1-yl)methyl)-3-(1-(4-fluorobenzyl)-1H-indol-5-yl)urea]					
21.3 ± 0.9	10.9 ± 0.1	10.6 ± 0.1	20.4	67.8	97.3 ± 0.7	100.7 ± 2.3	O=C(Nc1ccc2c(c1)CCN2Cc1ccc(F)cc1)NC12C[C@H]3C[C@@H](C1)C[C@@H](C2)C3 [Compound 6, 1-((3S,5S,7S)-Adamantan-1-yl)-3-(1-(4-fluorobenzyl)indolin-5-yl)urea]					
16.6 ± 1.4	9.3 ± 0.6	5.7 ± 0.2	16	86.6	96.2 ± 3.4	97.0 ± 2.3	O=C(NCC12C[C@H]3C[C@@H](C1)C[C@@H](C2)C3)Nc1ccc2c(ccn2CCc2ccc(F)cc2)c1 [Compound 30, 1-(((3R,5R,7R)-Adamantan-1-yl)methyl)-3-(1-(4-fluorophenethyl)-1H-indol-5-yl)urea]					
20.4 ± 1.8	11.9 ± 0.6	2.4 ± 0.4		118	98.2 ± 2.0	96.2 ± 2.8	O=C(NCC12C[C@H]3C[C@@H](C1)C[C@@H](C2)C3)Nc1ccc2c(ccn2C(=O)c2ccc(F)cc2)c1 [Compound 36, 1-(((3R,5R,7R)-Adamantan-1-yl)methyl)-3-(1-(4-fluorobenzoyl)-1H-indol-5-yl)urea]	11.8				

Structure (SMILES)	UGTs/CYPs dual-activity mouse liver microsomal stability ([1]; 0.25 h, 0.5 mg mL–1 microsomes) [%]	UGTs/CYPs dual-activity mouse liver microsomal stability ([1]; 0.5 h) [%]	UGTs/CYPs dual-activity mouse liver microsomal stability ([1]; 1.0 h) [%]	half-life at 5 µM [1] [min]	microsomal CLint at 1 h, 5 µM [1] [µL/min/mg]	mouse plasma stability (Mouse plasma stability; 1.0 h) [%]	mouse plasma stability (Mouse plasma stability; 2.0 h) [%]	half-life at 1 h, 5 µM [1] [min]	AUC(0-inf) at 24 h [2] [ng·h/mL]	Cmax at 24 h [2] [ng/mL]	Tmax at 24 h [2] [min]	half-life at 24 h [2] [min]
CC(C)c1ccc(Cn2ccc3cc(NC(=O)NCC45C[C@H]6C[C@@H](C4)C[C@@H](C5)C6)ccc32)cc1 [Compound 28, 1-(((3R,5R,7R)-Adamantan-1-yl)methyl)-3-(1-(4-isopropylbenzyl)-1H-indol-5-yl)urea]	91.5 ± 2.2	69.8 ± 2.9	53.1 ± 2.8		22	98.4 ± 3.3	101.3 ± 3.8	62.9	29.9	4.17	120	456
